According to the supplement of paper PMC10331698:
± gives the standard deviation of the averaged measurements.

What was measured:
Assay in all cases: level (log10 ratio to DMSO vehicle control); higher = higher biomarker level / cell amount than vehicle control
Settings in all cases: in DMSO
[1] = compound: C=CC(=O)OCCC(F)(F)C(F)(F)C(F)(F)C(F)(F)F [2-(Perfluorobutyl)ethyl acrylate]
Method: (§1)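 BioMAP Diversity Plus panel of 12 human primary cell co-culture systems (3C, 4H, LPS, SAg, BT, BF4T, BE3C, CASM3C, HDF3CGF, KF3CT, MyoF, Mphg). Compounds were added 1 h before stimulation and left for 24 h (MyoF 48 h; BT 72 h for soluble read-outs or 6 d for IgG). Biomarkers were read by ELISA, cytotoxicity by SRB, PBMC viability and proliferation by Alamar Blue. Each well value was divided by the mean of 8 DMSO control wells on the same plate and log10 transformed; duplicate blinded samples were tested at 4 concentrations.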

Perfluorooctanamidine = compound: N=C(N)C(F)(F)C(F)(F)C(F)(F)C(F)(F)C(F)(F)C(F)(F)C(F)(F)F [Perfluorooctanamidine]
Method: as §1

Perfluorohexanoic acid = compound: O=C(O)C(F)(F)C(F)(F)C(F)(F)C(F)(F)C(F)(F)F [Perfluorohexanoic acid]
Method: as §1

| Test System | level (log10) ([1]; 6700 nM) | level (log10) ([1]; 20000 nM) | level (log10) ([1]; 60000 nM) | level (log10) (Perfluorooctanamidine; 6700 nM) | level (log10) (Perfluorooctanamidine; 20000 nM) | level (log10) (Perfluorooctanamidine; 60000 nM) | level (log10) (Perfluorohexanoic acid; 6700 nM) | level (log10) (Perfluorohexanoic acid; 20000 nM) | level (log10) (Perfluorohexanoic acid; 60000 nM) |
| --- | --- | --- | --- | --- | --- | --- | --- | --- | --- |
| CASM3C:CD87/uPAR | -0.006 ± 0.024 | -0.027 ± 0.018 | -0.023 ± 0.0042 | -0.011 ± 0.016 | -0.02 ± 0.037 | -0.034 | -0.003 ± 0.027 | 0.0085 ± 0.022 | -0.012 ± 0.0014 |
| CASM3C:CD106/VCAM-1 | -0.0175 ± 0.023 | -0.0475 ± 0.0078 | -0.138 ± 0.016 | -0.0165 ± 0.00071 | -0.0195 ± 0.012 | -0.032 | -0.013 ± 0.011 | -0.002 ± 0.014 | -0.029 ± 0.018 |
| CASM3C:CD141/Thrombomodulin | 0.006 ± 0.018 | -0.0125 ± 0.0064 | 0.052 ± 0.0014 | -0.008 ± 0.016 | -0.0205 ± 0.005 | 0.043 | 0.021 ± 0.021 | -0.0105 ± 0.021 | 0.0005 ± 0.044 |
| CASM3C:CD142/Tissue Factor | -0.027 ± 0.011 | -0.0455 ± 0.0092 | -0.0585 ± 0.0092 | -0.022 ± 0.024 | -0.033 ± 0.0014 | 0.042 | -0.0125 ± 0.013 | -0.019 ± 0.0042 | -0.0145 ± 0.005 |
| CASM3C:CXCL8/IL-8 | -0.0045 ± 0.0064 | -0.009 ± 0.0014 | -0.028 ± 0.014 | 0.011 ± 0.017 | 0.0075 ± 0.0092 | 0.053 | 0.0005 ± 0.021 | 0.007 ± 0.0099 | 0.0265 ± 0.028 |
| CASM3C:CXCL9/MIG | -0.0005 ± 0.012 | -0.025 ± 0.0071 | -0.121 ± 0.014 | -0.005 ± 0.013 | -0.017 ± 0.024 | 0.069 | 0.008 ± 0.0057 | 0.001 ± 0.0042 | 0.012 ± 0.021 |
| CASM3C:HLA-DR | -0.0245 ± 0.025 | -0.017 ± 0.014 | -0.0205 ± 0.011 | -0.0335 ± 0.016 | -0.0655 ± 0.011 | -0.022 | 0.004 ± 0.0099 | -0.004 ± 0.0057 | -0.004 ± 0.011 |
| CASM3C:IL-6 | -0.023 ± 0.0014 | -0.0425 ± 0.0021 | -0.076 ± 0.034 | -0.046 ± 0.023 | -0.041 ± 0.035 | 0.041 | -0.0075 ± 0.042 | -0.0155 ± 0.0021 | -0.0125 ± 0.053 |
| CASM3C:LDLR | -0.013 ± 0.0099 | -0.0105 ± 0.0021 | 0.01 ± 0.042 | 0.012 ± 0.013 | 0.036 ± 0.0085 | 0.108 | 0.001 ± 0.0028 | -0.0065 ± 0.029 | -0.0025 ± 0.039 |
| CASM3C:M-CSF | -0.0165 ± 0.019 | -0.0355 ± 0.022 | -0.021 ± 0.044 | -0.0095 ± 0.021 | -0.025 ± 0.028 | 0.034 | -0.0185 ± 0.019 | -0.0125 ± 0.013 | 0.0105 ± 0.0092 |
| CASM3C:PAI-I | 0.0105 ± 0.021 | -0.0035 ± 0.011 | 0 ± 0.013 | 0.0055 ± 0.012 | 0.0015 ± 0.0064 | 0.022 | 0.0005 ± 0.005 | -0.003 ± 0.0042 | 0.0095 ± 0.005 |
| CASM3C:Proliferation | -0.0375 ± 0.06 | -0.0315 ± 0.069 | -0.123 ± 0.084 | 0.0185 ± 0.0078 | 0.0085 ± 0.0035 | -0.062 | -0.001 ± 0.018 | -0.065 | -0.0055 ± 0.015 |
| CASM3C:SRB | 0.0015 ± 0.0021 | 0.0055 ± 0.005 | 0.0005 ± 0.00071 | -0.0015 ± 0.011 | -0.0105 ± 0.00071 | -0.018 | -0.001 | -0.013 ± 0.0028 | -0.0005 ± 0.0021 |
| CASM3C:Serum Amyloid A | -0.007 | -0.0175 ± 0.016 | -0.0305 ± 0.08 | 0.001 ± 0.0014 | -0.0085 ± 0.018 | 0.053 | 0.0315 ± 0.012 | -0.003 ± 0.0028 | 0.01 ± 0.047 |
| HDF3CGF:CCL2/MCP-1 | -0.032 ± 0.0085 | -0.059 ± 0.025 | -0.117 ± 0.054 | -0.0075 ± 0.0035 | -0.005 ± 0.018 | -0.068 | -0.0145 ± 0.00071 | -0.009 ± 0.03 | -0.0205 ± 0.04 |
